# US11214803B2, “Modulators of YAP1 expression” (Ionis Pharmaceuticals, Inc., priority 2019, dated 2022)
# Strand notation (5' to 3'): a small letter for the sugar, then the base; units joined by * are phosphorothioate-linked, units joined directly phosphodiester-linked; [ ] holds rarer units or linkages, { } end groups; capitals alone tell only the bases. k = constrained ethyl (cEt); [5mC] = 5-methylcytosine; d = 2'-deoxy (DNA)
# Legend:
# Yap1 mRNA [1] = test: Antisense inhibition of human Yap1 in A-431 cells by cEt gapmers, single dose (Example 3, RTS36584); type: cell-based
# Procedure, shortened: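 Read-out is Yap1 mRNA as percent of untreated control, by quantitative RT-PCR normalized to total RNA (RiboGreen). Cells (A-431) received 2,000 nM of 3-10-3 cEt phosphorothioate gapmer via free uptake for roughly 48 hours.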
# Yap1 mRNA [2] = test: Dose-dependent inhibition of human Yap1 in A-431 cells (Example 8, 10,000 cells per well, RTS4814); type: cell-based; conditions: for % UTC (Yap1 mRNA) / IC50: A-431 cells; for Yap1 mRNA, % UTC: A-431 cells, 10,000 cells per well
# Procedure, shortened: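 Yap1 mRNA, normalized to RIBOGREEN total RNA and expressed as % untreated control, was read with RTS4814 about 48 h after free-uptake oligonucleotide treatment of A-431 cells at 10,000 cells/well. IC50 derived by linear regression of log/linear data.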
# [3] = Table 35, Yap1 mRNA as percent of untreated control, 3-10-3 cEt gapmers targeting SEQ ID NO: 1 and 2, single dose
# [4] = 31.3 nM, free uptake, approximately 48 hours, RTS4814
# [5] = 125.0 nM, free uptake, approximately 48 hours, RTS4814
# [6] = 500.0 nM, free uptake, approximately 48 hours, RTS4814
# [7] = 2000.00 nM, free uptake, approximately 48 hours, RTS4814
# [8] = free uptake, approximately 48 hours, RTS4814, linear regression on log/linear plot
# [9] = Table 34, Yap1 mRNA as percent of untreated control, 3-10-3 cEt gapmers targeting SEQ ID NO: 1 and 2, single dose
# [10] = Table 29, Yap1 mRNA as percent of untreated control, 3-10-3 cEt gapmers targeting SEQ ID NO.: 1, and 2
Substance,YAP1 (% UTC) (Yap1 mRNA [1]; [3]),% UTC (Yap1 mRNA) (Yap1 mRNA [2]; 31.3 nM) [% UTC],% UTC (Yap1 mRNA) (Yap1 mRNA [2]; 125.0 nM) [% UTC],% UTC (Yap1 mRNA) (Yap1 mRNA [2]; 500.0 nM) [% UTC],% UTC (Yap1 mRNA) (Yap1 mRNA [2]; 2000.00 nM) [% UTC],IC50 (Yap1 mRNA [2]; Yap1 mRNA) [nM],"YAP1 (% UTC) (Yap1 mRNA [1]; Table 27, Yap1 mRNA by 3-10-3 cEt gapmers targeting SEQ ID NO.: 1, and 2, percent of untreated control)","Yap1 mRNA, % UTC (Yap1 mRNA [2]; [4]) [% UTC]","Yap1 mRNA, % UTC (Yap1 mRNA [2]; [5]) [% UTC]","Yap1 mRNA, % UTC (Yap1 mRNA [2]; [6]) [% UTC]","Yap1 mRNA, % UTC (Yap1 mRNA [2]; [7]) [% UTC]",IC50 (Yap1 mRNA [2]; [8]) [nM],YAP1 (% UTC) (Yap1 mRNA [1]; [9]),YAP1 (% UTC) (Yap1 mRNA [1]; [10]),"YAP1 (% UTC) (Yap1 mRNA [1]; Table 28, Yap1 mRNA as percent of untreated control, 3-10-3 cEt gapmers targeting SEQ ID NO.: 1, and 2)"
1075093 (k[5mC]*kA*kA*dA*dG*dT*dA*dA*dG*dG*dT*dA*dT*kG*kA*kG; antisense) [compound 1075093],3,74,26,7,4,100,,,,,,,,,
1074421 (kT*kG*kA*dT*dT*d[5mC]*dT*dT*dT*dA*dG*dA*dG*k[5mC]*k[5mC]*kA; antisense) [compound 1074421],3,61,29,8,5,40,,,,,,,,,
1075053 (antisense kA*kA*kT*dA*dT*dA*dT*dA*d[5mC]*dT*dT*dG*dA*kT*k[5mC]*k[5mC]) [compound 1075053],,,,,,,4,61,24,8,5,40,,,
1074229 (antisense kG*kA*kA*dG*dA*d[5mC]*dT*dG*dT*d[5mC]*dG*dA*dA*kG*kA*kT) [compound 1074229],5,58,24,9,5,< 20,,,,,,,,,
1076084 (k[5mC]*kA*kT*d[5mC]*dA*dA*dT*dA*dG*dA*dG*dA*dG*kT*k[5mC]*kG; antisense) [compound 1076084],,69,34,12,8,100,,,,,,,7,,
1074607 (DNA kA*kA*kG*dG*dT*dA*dT*dA*dA*dT*d[5mC]*dA*dT*kG*kA*kT) [compound 1074607],,,,,,,,45,22,10,5,< 20,,4,
1074351 (antisense kA*kT*kG*d[5mC]*dT*dT*dA*dG*dT*d[5mC]*d[5mC]*dA*d[5mC]*kT*kG*kT) [compound 1074351],,,,,,,,69,33,13,7,100,,7,
1076367 (antisense k[5mC]*kT*kA*dT*dT*dT*dA*d[5mC]*dA*dT*dG*dA*dG*kA*kG*kG) [compound 1076367],,,,,,,,31,10,4,3,< 20,,3,
1076015 (kA*kT*kT*dT*dA*dG*dT*dT*dG*dG*dT*dT*dG*kT*kT*kA; antisense) [compound 1076015],,,,,,,,70,37,15,9,100,,8,
1074548 (kA*kT*k[5mC]*dT*dA*d[5mC]*d[5mC]*dG*dT*dA*dT*dG*d[5mC]*k[5mC]*k[5mC]*kA; antisense) [compound 1074548],,50,15,7,8,< 20,,,,,,,4,,
1076143 (kG*kA*kT*dA*d[5mC]*dG*dA*dA*dA*dA*dA*dA*dG*k[5mC]*k[5mC]*kA; antisense) [compound 1076143],,,,,,,,81,48,20,9,100,,8,
1076527 (kG*k[5mC]*kA*d[5mC]*dA*dA*d[5mC]*d[5mC]*dT*dT*dA*d[5mC]*dA*kT*kT*kT; antisense) [compound 1076527],,,,,,,,81,41,16,8,100,,6,
1074447 (kA*kA*kT*dG*dA*dT*dA*dG*d[5mC]*dA*d[5mC]*dT*dA*kG*kG*kA; antisense) [compound 1074447],,,,,,,,47,20,8,5,< 20,,4,
1076014 (kA*kA*kT*d[5mC]*dA*dA*d[5mC]*d[5mC]*dT*dA*dT*dG*dA*kG*kG*kT; antisense) [compound 1076014],,,,,,,,,,,,,,,98
